Test results: paper PMC8740820 (Toxicology and applied pharmacology, 2014)
“Also recorded” adds a separate entry of the source. Like-named read-outs stand apart in the source and are kept apart here. Each block holds one molecule with its values, some of them ahead of it.

Columns and labels:
5×ERE:GFP reporter = details: 5×ERE:GFP zebrafish larvae, cited from earlier work; for tissue of GFP expression: ref Gorelik et al., 2014
zfERα [1] = molecular target: T1, zfERα (Danio rerio, UniProt P57717); details: zebrafish liver-derived cell lines; ref Cosnefroy et al. (2012); cited from earlier work
T1 sequence (P57717 1-569): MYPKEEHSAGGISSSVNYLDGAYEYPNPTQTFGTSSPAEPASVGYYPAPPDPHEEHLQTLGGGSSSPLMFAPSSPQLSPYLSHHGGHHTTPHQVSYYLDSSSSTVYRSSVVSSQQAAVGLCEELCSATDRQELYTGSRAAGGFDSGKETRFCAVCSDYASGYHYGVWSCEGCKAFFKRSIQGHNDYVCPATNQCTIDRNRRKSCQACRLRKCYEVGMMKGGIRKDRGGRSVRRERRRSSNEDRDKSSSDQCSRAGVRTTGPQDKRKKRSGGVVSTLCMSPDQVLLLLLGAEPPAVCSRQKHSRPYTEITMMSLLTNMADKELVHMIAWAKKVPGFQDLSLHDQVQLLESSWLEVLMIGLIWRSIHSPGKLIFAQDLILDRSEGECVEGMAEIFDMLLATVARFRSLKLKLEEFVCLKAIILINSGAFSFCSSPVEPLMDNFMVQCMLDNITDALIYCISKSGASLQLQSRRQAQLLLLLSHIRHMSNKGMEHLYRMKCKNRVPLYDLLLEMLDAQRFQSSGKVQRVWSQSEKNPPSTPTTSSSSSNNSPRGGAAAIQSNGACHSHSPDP

zfERα [2] = molecular target: T1, zfERα; experiment: HELN-zfERα luciferase transactivation assay; details: for potency profile among zfER subtypes: Supplementary Fig. 2A and data not shown
zfERβ2 [3] = molecular target: T2, zfERβ2 (Danio rerio, UniProt Q7ZU32); experiment: cell-based; details: zfERβ2 EC50, HELN-zfERβ2, 28 °C
zfERβ1 [4] = molecular target: T3, zfERβ1 (Danio rerio, UniProt Q5PR29); details: for agonistic activity on zfERβ1 (in words): HELN-zfERβ1; for EC50: read-out: zfERβ1 EC50
zfERβ1 [5] = molecular target: T3, zfERβ1; experiment: cell-based; details: zfERβ1 EC50, HELN-zfERβ1, 28 °C
zfERβ2 [6] = molecular target: T2, zfERβ2; details: for agonistic activity on zfERβ2 (in words): HELN-zfERβ2; for EC50: read-out: zfERβ2 EC50
zfERβ2 [7] = molecular target: T2, zfERβ2; experiment: HELN-zfERβ2 transcriptional inhibition; format: cell-based, zebrafish
zfERβ1 [8] = molecular target: T3, zfERβ1; format: cell-based, zebrafish; details: HELN-zfERβ1
zfERα [9] = molecular target: T1, zfERα; experiment: HELN-zfERα transcriptional inhibition; format: cell-based, zebrafish
hERβ = hERβ (Homo sapiens, UniProt Q92731); details: ref Escande et al., 2006; cited from earlier work
hERα = molecular target: T4, hERα (Homo sapiens, UniProt P03372); details: HELN-hERα compared to hERβ, ref Escande et al., 2006, cited from earlier work
T4 sequence (P03372 1-595): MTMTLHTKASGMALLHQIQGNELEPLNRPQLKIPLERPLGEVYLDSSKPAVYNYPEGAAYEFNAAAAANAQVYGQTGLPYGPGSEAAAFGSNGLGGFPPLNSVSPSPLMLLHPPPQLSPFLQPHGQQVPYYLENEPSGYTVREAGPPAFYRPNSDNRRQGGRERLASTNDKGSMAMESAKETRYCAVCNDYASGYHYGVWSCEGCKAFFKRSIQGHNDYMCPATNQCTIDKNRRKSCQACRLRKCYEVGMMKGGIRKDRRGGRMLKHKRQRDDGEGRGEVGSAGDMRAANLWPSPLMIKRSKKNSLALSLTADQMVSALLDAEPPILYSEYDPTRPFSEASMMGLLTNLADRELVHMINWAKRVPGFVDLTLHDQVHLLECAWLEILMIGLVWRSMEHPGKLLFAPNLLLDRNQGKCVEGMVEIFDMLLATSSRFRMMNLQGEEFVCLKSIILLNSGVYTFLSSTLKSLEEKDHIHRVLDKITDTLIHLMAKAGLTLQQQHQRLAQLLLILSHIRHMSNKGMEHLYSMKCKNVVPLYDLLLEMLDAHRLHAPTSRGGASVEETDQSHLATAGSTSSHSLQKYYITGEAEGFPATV

Chain of hERβ (Q92731 whole entry): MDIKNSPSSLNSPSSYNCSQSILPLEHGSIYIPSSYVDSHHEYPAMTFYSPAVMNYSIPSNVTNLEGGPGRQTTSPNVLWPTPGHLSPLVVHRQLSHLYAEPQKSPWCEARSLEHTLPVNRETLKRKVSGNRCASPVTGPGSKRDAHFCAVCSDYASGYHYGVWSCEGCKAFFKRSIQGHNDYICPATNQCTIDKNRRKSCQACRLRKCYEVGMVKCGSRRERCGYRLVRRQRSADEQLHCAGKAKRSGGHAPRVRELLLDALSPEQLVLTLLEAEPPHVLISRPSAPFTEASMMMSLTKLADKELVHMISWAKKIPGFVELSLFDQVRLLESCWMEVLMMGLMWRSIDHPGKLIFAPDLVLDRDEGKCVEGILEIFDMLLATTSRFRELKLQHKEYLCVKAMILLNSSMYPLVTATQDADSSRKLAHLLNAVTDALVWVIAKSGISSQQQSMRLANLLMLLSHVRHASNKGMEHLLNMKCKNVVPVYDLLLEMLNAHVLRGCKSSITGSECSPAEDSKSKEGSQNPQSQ

Structure (SMILES): O=c1c(-c2ccc(O)cc2)coc2cc(O)cc(O)c12 [Genistein, 40,5,7-trihydroxyisoflavone]
tissue of GFP expression (5×ERE:GFP reporter): preferentially induced GFP expression in the heart valves

Structure (SMILES): O=C(c1ccc(O)cc1O)c1ccc(O)cc1O [BP2, 2,2′,4,4′-tetrahydroxybenzophenone]
fold higher potency zfERα compared to zfERβ1 (zfERα [1]): ~2 fold | fold higher potency zfERα compared to zfERβ2 (zfERα [1]): approximately 1.36 fold | agonistic activity on zfERα (in words) (zfERα [2]; HELN-zfERα): full agonist | fold higher potency zfERα compared to zfERβ1 (zfERα [2]; transactivation, 28 °C): 3 fold | EC50 (zfERα [2]; zfERα EC50, HELN-zfERα, 28 °C): ~251 nM | EC50 (zfERβ2 [3]): ~233 nM | agonistic activity on zfERβ1 (in words) (zfERβ1 [4]): full agonist | EC50 (zfERβ1 [5]): ~0.803 µM | agonistic activity on zfERβ2 (in words) (zfERβ2 [6]): full agonist | fold higher potency zfERβ2 compared to zfERβ1 (zfERβ2 [6]; transactivation, 28 °C): 3 fold

agonistic activity on zfERα (in words) (zfERα [2]): No agonistic activity | antagonistic activity on zfERβ2 (in words) (zfERβ2 [7]): full antagonistic activity | antagonistic activity on zfERβ1 (in words) (zfERβ1 [8]): full antagonistic activity | antagonistic activity on zfERα (in words) (zfERα [9]): full antagonistic activity | agonistic activity on zfERβ1 (in words) (zfERβ1 [4]): No agonistic activity | agonistic activity on zfERβ2 (in words) (zfERβ2 [6]): No agonistic activity
Structure (SMILES): CCC(=C(c1ccc(O)cc1)c1ccc(OCCN(C)C)cc1)c1ccccc1 [4OH-tamoxifen, 1-[p-dimethylaminoethoxyphenyl]-1-(4-hydroxyphenyl)-2-phenyl-1-butene]

Structure (SMILES): O=C1C[C@@H](c2ccc(O)cc2)Oc2cc(O)ccc21 [Liquiritigenin, liquiritigenin]
EC50 (zfERα [2]; read-out: zfERα EC50, HELN-zfERα, 28 °C): 563 nM | agonistic activity on zfERβ1 (in words) (zfERβ1 [4]): did not activate zfERβ1 at all

Structure (SMILES): N#CC(Cc1ccc(O)cc1)c1ccc(O)cc1 (stereo not shown) [DPN, 2,3-bis(4-hydroxyphenyl)-propionitrile]
tissue of GFP expression (5×ERE:GFP reporter): preferentially induced GFP expression in the heart valves

Structure (SMILES): Cc1c(-c2ccc(O)cc2)nn(-c2ccc(O)cc2)c1-c1ccc(OCCN2CCCCC2)cc1.Cl.Cl [MPP, 1,3-bis (4-hydroxyphenyl)-4-methyl-5-[4-(2-piperidinylethoxy)phenol]-1H-pyrazole dihydrochloride]
antagonistic activity on zfERβ1 (in words) (zfERβ1 [8]): slight zfERβ1 selectivity

Structure (SMILES): C#C[C@]1(O)CC[C@H]2[C@@H]3CCc4cc(O)ccc4[C@H]3CC[C@@]21C [EE2, 17α-ethynyl-1,3,5[10]-estratriene-3,17β-diol]
EC50 (zfERα [2]; read-out: zfERα EC50, HELN-zfERα, 31 °C): 0.127 nM | EC50 (zfERα [2]; read-out: zfERα EC50, HELN-zfERα, 34 °C): 0.19 nM | EC50 (zfERα [2]; read-out: zfERα EC50, HELN-zfERα, 37 °C): 0.947 nM | EC50 (zfERβ1 [4]; HELN-zfERβ1, 37 °C): 0.673 nM | EC50 (zfERβ2 [6]; HELN-zfERβ2, 28 °C): ~0.031 nM | EC50 (zfERβ2 [6]; HELN-zfERβ2, 37 °C): ~0.197 nM

Structure (SMILES): C[C@H]1CCC[C@@H](O)CCCCCc2cc(O)cc(O)c2C(=O)O1 [β-zearalanol]
potency profile among zfER subtypes (zfERα [2]): zfERα potency > zfERβ1 potency ≥ β2 potency

Structure (SMILES): CC(C)(C)CC(C)(C)c1ccc(O)cc1 [4-Tert-octylphenol, 4-tert-octylphenol]
agonistic activity on zfERβ1 (in words) (zfERβ1 [4]): full agonists | agonistic activity on zfERβ2 (in words) (zfERβ2 [6]): partial agonists

Structure (SMILES): C[C@H]1CCCC(=O)CCCCCc2cc(O)cc(O)c2C(=O)O1 [zearalanone]
potency profile among zfER subtypes (zfERα [2]): zfERα potency > zfERβ1 potency ≥ β2 potency

Structure (SMILES): C[C@]12CC[C@@H]3c4ccc(O)cc4CC[C@H]3[C@@H]1CCC2=O [E1, 1,3,5[10]-estratriene-3-ol-17-one]
EC50 (zfERβ2 [3]): 12.1 nM

antagonistic activity on zfERβ2 (in words) (zfERβ2 [7]): partially antagonize | antagonistic activity on zfERβ1 (in words) (zfERβ1 [8]): partially antagonize | antagonistic activity on zfERα (in words) (zfERα [9]): full antagonistic activity
Structure (SMILES): CCCc1c(-c2ccc(O)cc2)nn(-c2ccc(O)cc2)c1-c1ccc(O)cc1 [PPT, 4,4′,4″-(4-Propyl-[^1H]-pyrazole-1,3,5-triyl)trisphenol]
agonistic activity on zfERα (in words) (zfERα [2]; HELN-zfERα): did not activate zfERα at all; also recorded: devoid of agonistic activity | agonistic activity on hERβ (in words) (hERβ): unable to activate hERβ | tissue of GFP expression (5×ERE:GFP reporter): GFP labeling of only the larval liver | agonistic activity on zfERβ1 (in words) (zfERβ1 [4]): partially activated; also recorded: slightly activated | agonistic activity on zfERβ2 (in words) (zfERβ2 [6]): partially activated; also recorded: slightly activated

Structure (SMILES): C[C@]12CC[C@@H]3c4ccc(O)cc4CC[C@H]3[C@@H]1C[C@H]1OC(=O)C[C@]12O [16α-LE2, 3,17-Dihydroxy-19-nor-17α-pregna-1,3,5(10)-triene-21,16α-lactone]
fold potency/selectivity in reporter gene activation hERα over hERβ (hERα): over 1000 fold | fold potency/selectivity in reporter gene activation hERα over hERβ (hERα; listed as 16α-E2): 1000 fold | fold higher potency zfERα compared to zfERβ1 (zfERα [2]; transactivation, 28 °C): approximately 429 fold | fold higher potency zfERα compared to zfERβ2 (zfERα [2]; transactivation, 28 °C): ~115 fold

Structure (SMILES): C[C@H]1CCCC(=O)CCC/C=C/c2cc(O)cc(O)c2C(=O)O1 [zearalenone]
potency profile among zfER subtypes (zfERα [2]): zfERα potency > zfERβ1 potency ≥ β2 potency

Structure (SMILES): C[C@H]1CCC[C@@H](O)CCC/C=C/c2cc(O)cc(O)c2C(=O)O1 [β-zearalenol]
potency profile among zfER subtypes (zfERα [2]): zfERα potency > zfERβ1 potency ≥ β2 potency

agonistic activity on zfERα (in words) (zfERα [2]; HELN-zfERα): partial agonist | agonistic activity on zfERβ1 (in words) (zfERβ1 [4]): partial agonist | EC50 (zfERβ1 [5]; text value in μM): 1.89 µM | agonistic activity on zfERβ2 (in words) (zfERβ2 [6]): partial agonist
Structure (SMILES): CC(C)(c1ccc(O)cc1)c1ccc(O)cc1 [BPA, bisphenol A]
tissue of GFP expression (5×ERE:GFP reporter): preferentially induced GFP expression in the heart valves

Structure (SMILES): C[C@H]1CCC[C@H](O)CCC/C=C/c2cc(O)cc(O)c2C(=O)O1 [α-Zearalenol, α-zearalenol]
potency profile among zfER subtypes (zfERα [2]): zfERα potency > zfERβ1 potency ≥ β2 potency

Structure (SMILES): C[C@H]1CCC[C@H](O)CCCCCc2cc(O)cc(O)c2C(=O)O1 [α-Zearalanol, α-zearalanol]
EC50 (zfERβ1 [4]; HELN-zfERβ1, 28 °C): 0.71 nM

Structure (SMILES): C[C@]12CC[C@@H]3c4ccc(O)cc4C[C@@H](CCCCCCCCC[S+]([O-])CCCC(F)(F)C(F)(F)F)[C@H]3[C@@H]1CC[C@@H]2O (stereo partly drawn) [ICI 182,780, 7α,17β-[9[(4,4,5,5,5-pentafluoropentyl)sulfinyl]nonyl]estra-1,3,5(10)-triene-3,17-diol]
agonistic activity on zfERα (in words) (zfERα [2]; HELN-zfERα): No agonistic activity | antagonistic activity on zfERβ2 (in words) (zfERβ2 [7]): full antagonistic activity | antagonistic activity on zfERβ1 (in words) (zfERβ1 [8]): full antagonistic activity | antagonistic activity on zfERα (in words) (zfERα [9]): full antagonistic activity | IC50 (zfERα [9]; read-out: zfERα IC50, together with 1 nM E2, 28 °C): 3 nM | effect on E2-induced fluorescence in liver (5×ERE:GFP reporter; ref Gorelik and Halpern., 2011): reduce the E2-induced fluorescence in liver | agonistic activity on zfERβ1 (in words) (zfERβ1 [4]): No agonistic activity | agonistic activity on zfERβ2 (in words) (zfERβ2 [6]): No agonistic activity
